Laboratory results reported in publication PMC11062922 (Nature Chemical Biology, 2023).
Values joined by “and” are separate entries in the source; they are usually repeats but may differ in a detail not shown here. Equal entries are not always repeated. Where two headings read alike, the source gives them in different places.

Key:
PIK3CG = target: T1, PIK3CG (Homo sapiens, UniProt P48736); experiment: Kinobeads two-dose competition binding: PIK3CG; details: sheet "Kinobeads Drugmatrix-nanomolar2" (compounds in rows); read-out: Kinobeads Drugmatrix-nanomolar2: apparent Kd, PIK3CG
T1 construct: endogenous in cells
T1 sequence (P48736 whole entry): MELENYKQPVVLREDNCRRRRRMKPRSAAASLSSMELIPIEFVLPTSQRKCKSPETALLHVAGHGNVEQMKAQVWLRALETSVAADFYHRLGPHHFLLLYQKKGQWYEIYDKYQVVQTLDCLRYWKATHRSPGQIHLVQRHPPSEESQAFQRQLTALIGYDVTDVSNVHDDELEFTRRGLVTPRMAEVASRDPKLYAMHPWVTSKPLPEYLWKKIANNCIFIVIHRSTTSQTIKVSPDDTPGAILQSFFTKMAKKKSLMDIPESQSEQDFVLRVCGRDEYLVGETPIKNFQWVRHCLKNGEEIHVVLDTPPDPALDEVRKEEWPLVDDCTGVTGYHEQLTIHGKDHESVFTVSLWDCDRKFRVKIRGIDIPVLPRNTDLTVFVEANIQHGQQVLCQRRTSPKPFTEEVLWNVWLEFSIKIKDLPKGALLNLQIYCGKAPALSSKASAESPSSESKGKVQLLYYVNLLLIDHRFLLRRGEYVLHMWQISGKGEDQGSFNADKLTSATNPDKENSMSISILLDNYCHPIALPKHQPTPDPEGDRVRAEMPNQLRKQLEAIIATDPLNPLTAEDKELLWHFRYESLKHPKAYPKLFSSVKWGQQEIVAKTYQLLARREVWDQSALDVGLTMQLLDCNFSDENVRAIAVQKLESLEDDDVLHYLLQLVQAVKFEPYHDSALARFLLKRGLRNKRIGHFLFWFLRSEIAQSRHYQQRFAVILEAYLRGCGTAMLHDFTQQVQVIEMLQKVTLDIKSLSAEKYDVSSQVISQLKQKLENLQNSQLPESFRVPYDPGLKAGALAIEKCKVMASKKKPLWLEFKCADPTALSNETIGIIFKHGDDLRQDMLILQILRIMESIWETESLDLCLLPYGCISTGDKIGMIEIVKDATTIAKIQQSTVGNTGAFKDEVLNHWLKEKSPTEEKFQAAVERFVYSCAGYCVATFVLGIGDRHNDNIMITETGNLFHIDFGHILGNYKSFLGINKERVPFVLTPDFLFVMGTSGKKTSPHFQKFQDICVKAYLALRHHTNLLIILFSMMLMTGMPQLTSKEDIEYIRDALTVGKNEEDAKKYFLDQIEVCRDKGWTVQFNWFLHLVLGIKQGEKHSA
Description: Supplement 41589_2023_1459_MOESM3_ESM.xlsx, sheet "Kinobeads Drugmatrix-nanomolar2" | column: PIK3CG

HSP90B1 = target: T2, HSP90B1 (Homo sapiens, UniProt P14625); experiment: Kinobeads two-dose competition binding: HSP90B1; details: read-out: Lestaurtinib Drugmatrix value, Gene Name HSP90B1
T2 construct: endogenous in cells
T2 sequence (P14625 22-803): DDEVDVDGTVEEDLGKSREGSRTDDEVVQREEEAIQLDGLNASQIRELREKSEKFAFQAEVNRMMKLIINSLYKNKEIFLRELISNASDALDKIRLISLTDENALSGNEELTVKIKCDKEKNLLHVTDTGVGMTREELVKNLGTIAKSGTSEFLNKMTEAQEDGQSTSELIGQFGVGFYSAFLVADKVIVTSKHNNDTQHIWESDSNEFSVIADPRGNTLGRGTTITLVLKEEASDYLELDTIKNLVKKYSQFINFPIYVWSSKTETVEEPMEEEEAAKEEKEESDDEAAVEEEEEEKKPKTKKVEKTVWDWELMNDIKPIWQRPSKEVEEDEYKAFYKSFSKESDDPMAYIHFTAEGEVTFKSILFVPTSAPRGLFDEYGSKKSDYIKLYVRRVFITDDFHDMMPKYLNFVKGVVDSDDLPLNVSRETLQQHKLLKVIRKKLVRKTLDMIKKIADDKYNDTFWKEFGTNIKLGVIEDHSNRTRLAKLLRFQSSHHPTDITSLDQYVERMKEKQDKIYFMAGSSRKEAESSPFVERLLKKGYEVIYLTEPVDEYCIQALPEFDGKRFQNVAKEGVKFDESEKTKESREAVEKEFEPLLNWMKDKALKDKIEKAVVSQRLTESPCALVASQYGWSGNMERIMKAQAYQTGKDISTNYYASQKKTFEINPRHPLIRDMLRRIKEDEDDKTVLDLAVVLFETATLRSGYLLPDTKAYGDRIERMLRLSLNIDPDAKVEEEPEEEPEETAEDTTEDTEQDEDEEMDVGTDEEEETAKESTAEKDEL

EPHB4 = target: T3, EPHB4 (Homo sapiens, UniProt P54760); experiment: Kinobeads two-dose competition binding: EPHB4; details: read-out: Lestaurtinib Drugmatrix value, Gene Name EPHB4; target EPHB4; each column = one Lestaurtinib control replicate (batch_R1-R3)
T3 construct: endogenous in cells
T3 sequence (P54760 16-987): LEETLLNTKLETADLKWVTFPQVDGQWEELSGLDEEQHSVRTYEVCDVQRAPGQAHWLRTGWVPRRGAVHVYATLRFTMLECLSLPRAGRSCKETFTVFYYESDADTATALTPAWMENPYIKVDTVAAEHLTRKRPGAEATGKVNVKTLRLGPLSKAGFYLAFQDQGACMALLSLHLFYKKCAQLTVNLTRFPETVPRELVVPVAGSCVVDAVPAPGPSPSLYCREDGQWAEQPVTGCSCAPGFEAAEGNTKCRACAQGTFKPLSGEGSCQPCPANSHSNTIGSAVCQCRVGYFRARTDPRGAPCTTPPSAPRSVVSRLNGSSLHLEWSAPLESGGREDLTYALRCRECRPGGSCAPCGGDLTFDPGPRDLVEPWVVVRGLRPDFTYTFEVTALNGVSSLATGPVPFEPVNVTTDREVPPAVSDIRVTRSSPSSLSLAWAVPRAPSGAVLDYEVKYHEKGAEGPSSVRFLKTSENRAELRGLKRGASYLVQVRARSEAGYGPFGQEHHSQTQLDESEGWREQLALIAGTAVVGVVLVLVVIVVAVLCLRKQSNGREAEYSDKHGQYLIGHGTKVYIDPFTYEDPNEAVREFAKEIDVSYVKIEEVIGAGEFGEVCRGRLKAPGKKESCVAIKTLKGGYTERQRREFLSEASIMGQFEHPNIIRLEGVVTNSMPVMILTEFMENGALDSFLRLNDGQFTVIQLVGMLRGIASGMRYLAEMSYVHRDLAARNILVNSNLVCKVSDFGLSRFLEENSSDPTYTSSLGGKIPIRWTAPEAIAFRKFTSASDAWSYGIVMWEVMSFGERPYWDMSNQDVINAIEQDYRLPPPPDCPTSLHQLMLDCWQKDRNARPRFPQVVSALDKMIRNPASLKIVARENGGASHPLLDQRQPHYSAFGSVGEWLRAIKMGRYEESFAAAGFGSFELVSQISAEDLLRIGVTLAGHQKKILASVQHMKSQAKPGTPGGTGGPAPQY

MAPKAPK2 = target: T4, MAPKAPK2 (Homo sapiens, UniProt P49137); experiment: Kinobeads full dose-response competition binding: MAPKAPK2; details: Gene Name MAPKAPK2
T4 construct: endogenous in cells
T4 sequence (P49137 whole entry): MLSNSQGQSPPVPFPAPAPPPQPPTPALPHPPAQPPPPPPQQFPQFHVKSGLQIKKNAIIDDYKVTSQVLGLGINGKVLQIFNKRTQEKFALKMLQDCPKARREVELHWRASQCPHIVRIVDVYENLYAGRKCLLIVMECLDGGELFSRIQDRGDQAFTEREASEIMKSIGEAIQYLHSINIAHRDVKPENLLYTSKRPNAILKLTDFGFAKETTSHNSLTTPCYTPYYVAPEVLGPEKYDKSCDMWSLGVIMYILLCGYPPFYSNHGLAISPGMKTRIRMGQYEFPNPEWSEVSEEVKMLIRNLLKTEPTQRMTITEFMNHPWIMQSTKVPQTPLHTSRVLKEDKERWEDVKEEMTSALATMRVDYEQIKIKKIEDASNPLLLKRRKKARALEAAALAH

PRKACA = target: T5, PRKACA (Homo sapiens, UniProt P17612); experiment: Kinobeads full dose-response competition binding: PRKACA; details: Gene Name PRKACA
T5 construct: a mixture of lysates from five cancer cell lines; endogenous in cells

PRKCD = target: T6, PRKCD (Homo sapiens, UniProt Q05655); experiment: Kinobeads full dose-response competition binding: PRKCD; details: Gene Name PRKCD
T6 construct: endogenous in cells
T6 sequence (Q05655 whole entry): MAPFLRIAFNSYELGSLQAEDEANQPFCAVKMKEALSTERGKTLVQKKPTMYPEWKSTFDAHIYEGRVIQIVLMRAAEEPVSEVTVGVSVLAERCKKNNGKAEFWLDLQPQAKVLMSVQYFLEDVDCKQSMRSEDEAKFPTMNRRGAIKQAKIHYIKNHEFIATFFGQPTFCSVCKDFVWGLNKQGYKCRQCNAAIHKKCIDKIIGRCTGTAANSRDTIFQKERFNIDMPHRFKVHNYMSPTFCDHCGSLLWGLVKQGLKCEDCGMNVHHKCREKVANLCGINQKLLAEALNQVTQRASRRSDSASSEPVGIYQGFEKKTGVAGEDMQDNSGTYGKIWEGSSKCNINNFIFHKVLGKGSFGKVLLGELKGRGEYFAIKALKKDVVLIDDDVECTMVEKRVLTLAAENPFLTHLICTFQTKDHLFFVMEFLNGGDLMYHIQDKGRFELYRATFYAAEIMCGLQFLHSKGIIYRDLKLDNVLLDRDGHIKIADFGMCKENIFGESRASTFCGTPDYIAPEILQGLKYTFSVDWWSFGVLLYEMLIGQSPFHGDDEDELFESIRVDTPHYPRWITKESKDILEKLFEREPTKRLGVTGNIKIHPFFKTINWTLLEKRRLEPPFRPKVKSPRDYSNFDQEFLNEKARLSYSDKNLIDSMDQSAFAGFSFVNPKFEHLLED

CSNK2A2 = CSNK2A2 (Homo sapiens, UniProt P19784); experiment: NanoBRET in-cell target engagement in HEK293T cells: CSNK2A2; format: cell-based; design: full-length PKN3, CSNK2A1 or CSNK2A2 ORF; host or cells: HEK293T
Sequence of CSNK2A2 (P19784 whole entry, the tested form may be a part): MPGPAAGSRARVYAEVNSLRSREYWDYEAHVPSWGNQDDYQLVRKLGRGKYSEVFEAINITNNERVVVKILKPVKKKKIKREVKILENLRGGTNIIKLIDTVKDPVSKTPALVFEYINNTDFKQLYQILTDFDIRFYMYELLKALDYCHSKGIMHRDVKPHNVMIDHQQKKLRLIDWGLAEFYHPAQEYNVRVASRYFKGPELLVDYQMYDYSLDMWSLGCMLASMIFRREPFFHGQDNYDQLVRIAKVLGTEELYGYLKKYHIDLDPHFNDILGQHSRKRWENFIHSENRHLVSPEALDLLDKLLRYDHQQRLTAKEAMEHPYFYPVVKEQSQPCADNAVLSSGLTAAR
Experimental: The NanoBRET assay was performed as described previously[28],[58]. In brief, full-length PKN3, CSNK2A1 or CSNK2A2 ORF (PKN3 vector was a kind gift of Promega, Vectors for […]: NV2981, NV1191) cloned in frame with a C-terminal NanoLuc-fusion, respectively, were transfected into HEK293T cells using FuGENE HD (Promega, E2312) and proteins were allowed to express for 20 h. Serially diluted inhibitor and NanoBRET Kinase Tracer K5 (Promega, N2530) at 500 nM (PKN3) or NanoBRET Kinase Tracer K10 (Promega, N2840) at 500 nM ([…]) were pipetted into 384-well plates using an Echo acoustic dispenser (Labcyte). The PKN3, CSNK2A1 or CSNK2A2 transfected cells were added at a density of 2 × 10^5 cells per ml after trypsinization and resuspending in Opti-MEM without phenol red (Life Technologies). The system was allowed to equilibrate for 2 h at 37 °C and 5% CO2 before BRET measurements. BRET signaling was measured by adding NanoBRET NanoGlo Substrate and Extracellular NanoLuc Inhibitor (Promega) according to the manufacturer’s protocol. Filtered luminescence was measured on a PHERAstar plate reader (BMG Labtech) equipped with a luminescence filter pair (450 nm BP filter (donor) and 610 LP filter (acceptor)). Competitive displacement data were then graphed using GraphPad Prism software (v.5.01) using a three-parameter curve fit with the following equation Y=bottom+(top−bottom)/1+10^logIC50−X×hillslope
Experiments were performed with at least two biological and two technical replicates.

[1] = EC50 with Correction, doses in nM, read-out: apparent Kd
[2] = eight-dose curve fit, doses in nM

CC(C)N1CC(=O)N(C)c2cnc(Nc3cccc(S(=O)(=O)CCN4CCOCC4)c3)nc21 [BI00009348]
potency estimated from few doses (PIK3CG): 109 nM

C[C@]12O[C@H](C[C@]1(O)CO)n1c3ccccc3c3c4c(c5c6ccccc6n2c5c31)CNC4=O [Lestaurtinib]
potency estimated from few doses (HSP90B1): 979 nM
potency estimated from few doses (EPHB4): 207 nM and 689 nM

NCc1ccc(-c2nc(-c3ccncc3)c(-c3ccc(Cl)c(O)c3)[nH]2)cc1 [SB-476429-A]
Relative Intensity 0.3nM (MAPKAPK2; 0.3nM compound, DMSO = 1): 1.233
Relative Intensity 1nM (MAPKAPK2; 1nM compound, DMSO = 1): 1.094
Relative Intensity 3nM (MAPKAPK2; 3nM compound, DMSO = 1): 1.023
Relative Intensity 10nM (MAPKAPK2; 10nM compound, DMSO = 1): 1.156
Relative Intensity 30nM (MAPKAPK2; 30nM compound, DMSO = 1): 0.8314
Relative Intensity 100nM (MAPKAPK2; 100nM compound, DMSO = 1): 0.6869
Relative Intensity 300nM (MAPKAPK2; 300nM compound, DMSO = 1): 0.5275
Relative Intensity 1000nM (MAPKAPK2; 1000nM compound, DMSO = 1): 0
Kd (MAPKAPK2; [1]): 174 nM
EC50 (MAPKAPK2; [2]): 174 nM

CCn1c(-c2nonc2N)nc2c(C#CC(C)(C)O)nc(OCCN)cc21 [GSK902056A]
Relative Intensity 0.3nM (PRKACA; 0.3nM compound, DMSO = 1): 1.008
Relative Intensity 1nM (PRKACA; 1nM compound, DMSO = 1): 0.9404
Relative Intensity 3nM (PRKACA; 3nM compound, DMSO = 1): 0.9819
Relative Intensity 10nM (PRKACA; 10nM compound, DMSO = 1): 0.932
Relative Intensity 30nM (PRKACA; 30nM compound, DMSO = 1): 0.8034
Relative Intensity 100nM (PRKACA; 100nM compound, DMSO = 1): 0.7942
Relative Intensity 300nM (PRKACA; 300nM compound, DMSO = 1): 0.6618
Relative Intensity 1000nM (PRKACA; 1000nM compound, DMSO = 1): 0.5702
Kd (PRKACA; [1]): 212 nM
EC50 (PRKACA; [2]): 230 nM
Relative Intensity 0.3nM (PRKCD; 0.3nM compound, DMSO = 1): 0.9769
Relative Intensity 1nM (PRKCD; 1nM compound, DMSO = 1): 1.01
Relative Intensity 3nM (PRKCD; 3nM compound, DMSO = 1): 1.114
Relative Intensity 10nM (PRKCD; 10nM compound, DMSO = 1): 1.044
Relative Intensity 30nM (PRKCD; 30nM compound, DMSO = 1): 0.8254
Relative Intensity 100nM (PRKCD; 100nM compound, DMSO = 1): 0.6161
Relative Intensity 300nM (PRKCD; 300nM compound, DMSO = 1): 0.3888
Relative Intensity 1000nM (PRKCD; 1000nM compound, DMSO = 1): 0.1734
Kd (PRKCD; [1]): 124 nM
EC50 (PRKCD; [2]): 124 nM

COc1cc(Nc2ncc3c(C)nc(-c4cc5ccccc5[nH]4)n3n2)cc(OC)c1OC [GW869516X]
IC50 (CSNK2A2; CSNK2A2, replicate 1, read-out: NanoBRET Rep1): 135 nM
IC50 (CSNK2A2; CSNK2A2, replicate 2, read-out: NanoBRET Rep2): 503 nM
IC50 (CSNK2A2; HEK293T cells, in-cell target engagement, read-out: IC50 CSNK2A2 NanoBRET): 319 nM
